Laboratory results published in ChEMBL document CHEMBL6134892, “Discovery and Evaluation of DA-302168S as an Efficacious Oral Small-Molecule Glucagon-Like Peptide-1 Receptor Agonist” (J Med Chem, 2025).
Values belong to the molecule of their own block, whether it stands above or below them.

Columns and labels:
[1] = target: Voltage-gated inwardly rectifying potassium channel KCNH2 (Homo sapiens, UniProt Q12809); assay: Inhibition of human ERG by whole-cell patch clamp technique; format: toxicity
Chain of Voltage-gated inwardly rectifying potassium channel KCNH2 (Q12809 whole entry): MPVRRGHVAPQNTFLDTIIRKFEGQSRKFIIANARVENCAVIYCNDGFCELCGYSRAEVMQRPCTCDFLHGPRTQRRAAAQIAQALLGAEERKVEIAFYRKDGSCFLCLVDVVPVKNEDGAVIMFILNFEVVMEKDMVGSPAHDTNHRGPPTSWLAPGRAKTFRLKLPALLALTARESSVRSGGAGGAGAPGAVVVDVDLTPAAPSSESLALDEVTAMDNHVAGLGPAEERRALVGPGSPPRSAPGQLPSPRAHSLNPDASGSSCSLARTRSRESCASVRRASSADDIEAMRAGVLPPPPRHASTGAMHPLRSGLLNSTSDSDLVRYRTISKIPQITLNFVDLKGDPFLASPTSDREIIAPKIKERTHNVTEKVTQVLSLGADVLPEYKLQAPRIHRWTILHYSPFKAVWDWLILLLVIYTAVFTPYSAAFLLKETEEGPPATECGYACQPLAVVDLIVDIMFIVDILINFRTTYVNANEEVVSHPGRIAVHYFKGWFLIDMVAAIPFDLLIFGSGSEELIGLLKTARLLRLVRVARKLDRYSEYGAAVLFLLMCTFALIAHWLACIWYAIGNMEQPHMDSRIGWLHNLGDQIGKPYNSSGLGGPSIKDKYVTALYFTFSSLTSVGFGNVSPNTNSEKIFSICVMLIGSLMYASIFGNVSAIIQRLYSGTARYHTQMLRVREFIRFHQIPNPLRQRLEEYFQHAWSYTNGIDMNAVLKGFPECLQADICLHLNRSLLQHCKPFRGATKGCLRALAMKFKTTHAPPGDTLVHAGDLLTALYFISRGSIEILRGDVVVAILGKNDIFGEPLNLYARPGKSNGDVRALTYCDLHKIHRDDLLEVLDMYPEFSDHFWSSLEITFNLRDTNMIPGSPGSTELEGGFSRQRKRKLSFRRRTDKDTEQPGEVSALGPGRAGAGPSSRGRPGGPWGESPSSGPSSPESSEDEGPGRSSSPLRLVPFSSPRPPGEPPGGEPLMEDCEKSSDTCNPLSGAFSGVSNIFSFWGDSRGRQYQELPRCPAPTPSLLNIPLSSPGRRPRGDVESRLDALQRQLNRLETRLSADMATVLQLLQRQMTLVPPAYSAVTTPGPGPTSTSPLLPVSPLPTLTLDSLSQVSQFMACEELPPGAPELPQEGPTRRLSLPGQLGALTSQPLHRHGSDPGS

[2] = target: hERG (KCNH2) (Homo sapiens, UniProt Q12809); assay: Inhibition of human ERG at 30 uM by whole-cell patch clamp technique relative to control; format: toxicity
Chain of hERG (KCNH2) (Q12809 whole entry): as above

[3] = Metabolic stability in human liver microsomes assessed as half life at 1 uM measured after 5 to 45 mins in presence of NADPH by LC-MS/MS analysis; format: ADME, Microsome; conditions: time 5-45 min
[4] = Metabolic stability in human liver microsomes assessed as hepatic clearance at 1 uM measured after 5 to 45 mins in presence of NADPH by LC-MS/MS analysis; format: ADME, Microsome; conditions: time 5-45 min
[5] = Metabolic stability in human liver microsomes assessed as intrinsic clearance at 1 uM measured after 5 to 45 mins in presence of NADPH by LC-MS/MS analysis; format: ADME, Microsome; conditions: time 5-45 min, read-out: CLH
[6] = target: T1, Glucagon-like peptide 1 receptor (Homo sapiens, UniProt P43220); assay: Agonist activity at human GLP-1R expressed in HEK293 cells coexpressing CRE LUC incubated for 5 hrs by luciferase based microplate reader analysis; format: functional, cell-based
T1 sequence (P43220 whole entry): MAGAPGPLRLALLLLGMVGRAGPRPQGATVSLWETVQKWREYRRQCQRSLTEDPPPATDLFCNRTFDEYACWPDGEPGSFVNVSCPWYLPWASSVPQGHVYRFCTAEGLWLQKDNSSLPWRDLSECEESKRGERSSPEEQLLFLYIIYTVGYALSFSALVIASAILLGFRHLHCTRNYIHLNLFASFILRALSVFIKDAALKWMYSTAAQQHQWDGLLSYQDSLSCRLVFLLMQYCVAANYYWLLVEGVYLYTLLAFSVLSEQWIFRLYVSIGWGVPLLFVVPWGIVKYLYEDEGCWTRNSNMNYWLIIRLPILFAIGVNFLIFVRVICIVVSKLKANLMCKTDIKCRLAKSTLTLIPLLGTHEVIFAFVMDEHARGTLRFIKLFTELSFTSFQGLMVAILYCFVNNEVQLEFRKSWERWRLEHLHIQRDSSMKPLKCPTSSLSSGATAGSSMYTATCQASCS

[7] = Agonist activity at cynomolgus monkey GLP-1R expressed in HEK293 cells by cAMP accumulation assay; conditions: Macaca fascicularis
[8] = target: LCK (tyrosine-protein kinase Lck) (Homo sapiens, UniProt P06239); assay: Inhibition of LCK (unknown origin) at 10 uM relative to control; format: toxicity
[9] = target: Cytochrome P450 2D6 (Homo sapiens, UniProt P10635); assay: Inhibition of CYP2D6 in human liver microsomes incubated for 20 mins in presence of NADPH by LC-MS/MS analysis; format: ADME, Microsome
[10] = target: T2, Glucagon-like peptide 1 receptor (Rattus norvegicus, UniProt P32301); assay: Agonist activity at rat GLP-1R expressed in HEK293 cells by cAMP accumulation assay; format: functional, cell-based
T2 sequence (P32301 whole entry): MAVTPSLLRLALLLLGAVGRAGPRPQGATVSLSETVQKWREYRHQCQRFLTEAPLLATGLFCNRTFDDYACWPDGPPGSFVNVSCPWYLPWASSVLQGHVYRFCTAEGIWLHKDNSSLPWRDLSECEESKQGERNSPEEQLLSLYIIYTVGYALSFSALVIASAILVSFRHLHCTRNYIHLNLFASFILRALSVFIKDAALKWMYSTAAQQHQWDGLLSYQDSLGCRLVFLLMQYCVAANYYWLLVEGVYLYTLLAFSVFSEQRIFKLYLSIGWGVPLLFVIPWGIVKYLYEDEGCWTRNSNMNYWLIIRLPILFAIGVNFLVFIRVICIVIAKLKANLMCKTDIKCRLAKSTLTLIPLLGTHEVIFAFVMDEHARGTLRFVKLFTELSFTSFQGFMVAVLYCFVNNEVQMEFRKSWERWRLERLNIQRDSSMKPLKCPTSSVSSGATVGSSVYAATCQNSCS

[11] = target: T3, Cytochrome P450 2C8 (Homo sapiens, UniProt P10632); assay: Inhibition of CYP2C8 in human liver microsomes incubated for 20 mins in presence of NADPH by LC-MS/MS analysis; format: ADME, Microsome
T3 sequence (P10632 whole entry): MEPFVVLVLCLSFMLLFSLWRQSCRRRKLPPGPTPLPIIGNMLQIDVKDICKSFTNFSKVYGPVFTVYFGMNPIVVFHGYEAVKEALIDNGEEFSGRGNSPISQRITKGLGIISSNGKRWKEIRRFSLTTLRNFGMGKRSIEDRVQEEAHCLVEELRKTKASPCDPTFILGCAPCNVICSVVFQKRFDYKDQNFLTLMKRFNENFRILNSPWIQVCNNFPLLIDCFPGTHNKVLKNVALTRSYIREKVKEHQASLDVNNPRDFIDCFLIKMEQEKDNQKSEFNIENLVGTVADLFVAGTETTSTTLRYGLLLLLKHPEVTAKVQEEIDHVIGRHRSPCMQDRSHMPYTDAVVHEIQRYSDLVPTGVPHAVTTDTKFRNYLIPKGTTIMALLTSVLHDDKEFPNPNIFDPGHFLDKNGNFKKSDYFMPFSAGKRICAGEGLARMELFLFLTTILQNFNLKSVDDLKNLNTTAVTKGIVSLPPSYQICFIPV

[12] = target: T4, Glucagon-like peptide 1 receptor (Mus musculus, UniProt O35659); assay: Agonist activity at mouse GLP-1R expressed in HEK293 cells by cAMP accumulation assay; format: functional, cell-based
T4 sequence (O35659 whole entry): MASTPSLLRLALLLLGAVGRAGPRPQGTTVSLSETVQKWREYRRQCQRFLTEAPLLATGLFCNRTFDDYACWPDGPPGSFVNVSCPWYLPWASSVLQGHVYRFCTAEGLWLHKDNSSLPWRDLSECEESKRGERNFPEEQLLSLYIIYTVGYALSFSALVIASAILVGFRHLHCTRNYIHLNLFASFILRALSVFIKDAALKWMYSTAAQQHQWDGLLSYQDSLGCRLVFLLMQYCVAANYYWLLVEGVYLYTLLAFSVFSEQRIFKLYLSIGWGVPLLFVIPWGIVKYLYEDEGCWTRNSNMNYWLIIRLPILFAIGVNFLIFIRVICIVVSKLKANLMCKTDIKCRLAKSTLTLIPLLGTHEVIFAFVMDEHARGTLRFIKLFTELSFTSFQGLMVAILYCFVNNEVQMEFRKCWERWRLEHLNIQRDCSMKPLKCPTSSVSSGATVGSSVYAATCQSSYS

[13] = Oral bioavailability in Sprague-Dawley rat at 10 mg/kg measured up to 24 hrs by LC-MS/MS analysis; format: ADME, organism-based; conditions: in vivo
[14] = target: Cytochrome P450 2C9 (Homo sapiens, UniProt P11712); assay: Inhibition of CYP2C9 in human liver microsomes incubated for 10 mins in presence of NADPH by LC-MS/MS analysis; format: ADME, Microsome
Chain of Cytochrome P450 2C9 (P11712 whole entry): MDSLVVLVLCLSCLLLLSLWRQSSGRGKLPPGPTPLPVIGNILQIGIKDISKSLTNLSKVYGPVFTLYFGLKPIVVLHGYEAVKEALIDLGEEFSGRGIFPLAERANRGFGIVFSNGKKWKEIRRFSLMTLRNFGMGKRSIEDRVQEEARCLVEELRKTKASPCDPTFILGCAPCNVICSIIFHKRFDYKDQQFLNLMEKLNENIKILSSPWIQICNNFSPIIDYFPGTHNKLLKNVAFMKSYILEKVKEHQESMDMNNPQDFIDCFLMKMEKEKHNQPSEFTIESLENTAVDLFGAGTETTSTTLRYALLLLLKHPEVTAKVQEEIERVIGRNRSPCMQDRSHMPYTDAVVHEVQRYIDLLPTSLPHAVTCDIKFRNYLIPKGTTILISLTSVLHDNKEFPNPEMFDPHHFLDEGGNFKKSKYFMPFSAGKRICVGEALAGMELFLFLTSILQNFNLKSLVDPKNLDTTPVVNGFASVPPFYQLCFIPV

[15] = AUC last in Sprague-Dawley rat at 10 mg/kg, po measured up to 24 hrs by LC-MS/MS analysis; format: ADME, organism-based; conditions: in vivo
[16] = target: Cytochrome P450 2C19 (Homo sapiens, UniProt P33261); assay: Inhibition of CYP2C19 in human liver microsomes incubated for 45 mins in presence of NADPH by LC-MS/MS analysis; format: ADME, Microsome
Chain of Cytochrome P450 2C19 (P33261 whole entry): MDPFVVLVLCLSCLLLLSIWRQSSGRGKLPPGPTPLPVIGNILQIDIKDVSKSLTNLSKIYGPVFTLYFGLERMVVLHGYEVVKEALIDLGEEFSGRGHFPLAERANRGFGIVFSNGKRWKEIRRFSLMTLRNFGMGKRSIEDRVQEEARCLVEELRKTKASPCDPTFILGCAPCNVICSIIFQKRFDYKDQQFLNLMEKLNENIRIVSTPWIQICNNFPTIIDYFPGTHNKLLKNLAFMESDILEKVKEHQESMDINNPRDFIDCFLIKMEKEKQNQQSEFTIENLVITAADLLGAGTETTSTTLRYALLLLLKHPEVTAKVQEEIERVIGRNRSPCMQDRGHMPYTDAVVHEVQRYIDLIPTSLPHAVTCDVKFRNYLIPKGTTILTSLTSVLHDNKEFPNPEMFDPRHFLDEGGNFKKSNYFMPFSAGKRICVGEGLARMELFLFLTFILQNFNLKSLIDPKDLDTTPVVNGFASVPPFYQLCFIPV

[17] = target: CB2 (cannabinoid receptor 2) (Homo sapiens, UniProt P34972); assay: Inhibition of CB2 (unknown origin) at 10 uM relative to control; format: toxicity
Chain of CB2 (cannabinoid receptor 2) (P34972 whole entry): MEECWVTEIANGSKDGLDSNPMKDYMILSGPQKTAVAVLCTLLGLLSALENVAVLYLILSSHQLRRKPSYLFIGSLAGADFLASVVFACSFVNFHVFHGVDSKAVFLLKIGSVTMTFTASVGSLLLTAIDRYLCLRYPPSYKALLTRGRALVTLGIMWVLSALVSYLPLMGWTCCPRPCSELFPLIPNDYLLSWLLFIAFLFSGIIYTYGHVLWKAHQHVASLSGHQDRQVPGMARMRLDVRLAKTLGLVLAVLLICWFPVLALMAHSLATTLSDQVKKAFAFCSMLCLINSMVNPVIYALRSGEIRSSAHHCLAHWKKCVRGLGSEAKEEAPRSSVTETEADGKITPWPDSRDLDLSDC

[18] = Half life in Cynomolgus monkey at 0.5 mg/kg, iv measured up to 48 hrs by LC-MS/MS analysis; format: ADME, organism-based, Macaca fascicularis; conditions: in vivo
[19] = Cmax in Cynomolgus monkey at 5 mg/kg, po measured up to 48 hrs by LC-MS/MS analysis; format: ADME, organism-based, Macaca fascicularis; conditions: in vivo
[20] = Tmax in Sprague-Dawley rat at 10 mg/kg, po measured up to 24 hrs by LC-MS/MS analysis; format: ADME, organism-based; conditions: in vivo
[21] = Half life in Cynomolgus monkey at 5 mg/kg, po measured up to 48 hrs by LC-MS/MS analysis; format: ADME, organism-based, Macaca fascicularis; conditions: in vivo
[22] = Tmax in Cynomolgus monkey at 5 mg/kg, po measured up to 48 hrs by LC-MS/MS analysis; format: ADME, organism-based, Macaca fascicularis; conditions: in vivo
[23] = Agonist activity at dog GLP-1R expressed in HEK293 cells by cAMP accumulation assay; conditions: Canis lupus familiaris
[24] = target: T5, Cytochrome P450 1A2 (Homo sapiens, UniProt P05177); assay: Inhibition of CYP1A2 in human liver microsomes incubated for 10 mins in presence of NADPH by LC-MS/MS analysis; format: ADME, Microsome
T5 sequence (P05177 whole entry): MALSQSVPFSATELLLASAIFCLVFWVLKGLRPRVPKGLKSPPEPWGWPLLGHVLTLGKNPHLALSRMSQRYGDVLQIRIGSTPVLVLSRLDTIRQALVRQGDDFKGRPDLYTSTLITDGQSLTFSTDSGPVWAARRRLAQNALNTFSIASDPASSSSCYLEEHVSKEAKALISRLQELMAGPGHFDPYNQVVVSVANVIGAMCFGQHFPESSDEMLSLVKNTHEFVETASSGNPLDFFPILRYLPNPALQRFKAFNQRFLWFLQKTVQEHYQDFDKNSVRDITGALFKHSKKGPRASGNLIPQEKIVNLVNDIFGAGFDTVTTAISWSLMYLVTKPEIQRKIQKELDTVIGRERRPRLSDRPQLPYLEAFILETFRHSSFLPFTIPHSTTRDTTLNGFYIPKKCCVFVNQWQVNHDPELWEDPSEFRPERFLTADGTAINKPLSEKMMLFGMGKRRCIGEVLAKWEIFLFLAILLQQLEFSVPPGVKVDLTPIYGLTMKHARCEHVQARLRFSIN

[25] = Cmax in Sprague-Dawley rat at 10 mg/kg, po measured up to 24 hrs by LC-MS/MS analysis; format: ADME, organism-based; conditions: in vivo
[26] = target: T1, Glucagon-like peptide 1 receptor; assay: Agonist activity at human GLP-1R expressed in HEK293 cells by cAMP accumulation assay; format: functional, cell-based
[27] = target: T1, Glucagon-like peptide 1 receptor; assay: Agonist activity at human GLP-1R expressed in HEK293 cells assessed as beta-arrestin recruitment; format: functional, cell-based
[28] = target: T6, Cytochrome P450 2B6 (Homo sapiens, UniProt P20813); assay: Inhibition of CYP2B6 in human liver microsomes incubated for 10 mins in presence of NADPH by LC-MS/MS analysis; format: ADME, Microsome
T6 sequence (P20813 whole entry): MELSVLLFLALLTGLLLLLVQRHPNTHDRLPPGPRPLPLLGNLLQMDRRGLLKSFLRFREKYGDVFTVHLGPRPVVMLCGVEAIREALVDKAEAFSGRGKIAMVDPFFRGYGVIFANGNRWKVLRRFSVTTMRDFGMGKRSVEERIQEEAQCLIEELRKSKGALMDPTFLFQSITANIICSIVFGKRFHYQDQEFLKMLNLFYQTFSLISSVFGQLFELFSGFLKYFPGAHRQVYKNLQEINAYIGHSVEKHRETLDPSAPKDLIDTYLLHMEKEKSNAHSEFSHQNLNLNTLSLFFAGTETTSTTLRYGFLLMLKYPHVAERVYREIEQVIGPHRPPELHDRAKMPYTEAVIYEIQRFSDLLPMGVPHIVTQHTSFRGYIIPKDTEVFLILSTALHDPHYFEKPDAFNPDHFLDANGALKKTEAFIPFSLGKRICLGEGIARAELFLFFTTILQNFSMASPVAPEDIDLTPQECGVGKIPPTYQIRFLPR

[29] = AUC last in Cynomolgus monkey at 5 mg/kg, po measured up to 48 hrs by LC-MS/MS analysis; format: ADME, organism-based, Macaca fascicularis; conditions: in vivo
[30] = target: Cytochrome P450 3A4 (Homo sapiens, UniProt P08684); assay: Inhibition of CYP3A4 in human liver microsomes using testosterone as substrate incubated for 5 mins in presence of NADPH by LC-MS/MS analysis; format: ADME, Microsome
Chain of Cytochrome P450 3A4 (P08684 whole entry): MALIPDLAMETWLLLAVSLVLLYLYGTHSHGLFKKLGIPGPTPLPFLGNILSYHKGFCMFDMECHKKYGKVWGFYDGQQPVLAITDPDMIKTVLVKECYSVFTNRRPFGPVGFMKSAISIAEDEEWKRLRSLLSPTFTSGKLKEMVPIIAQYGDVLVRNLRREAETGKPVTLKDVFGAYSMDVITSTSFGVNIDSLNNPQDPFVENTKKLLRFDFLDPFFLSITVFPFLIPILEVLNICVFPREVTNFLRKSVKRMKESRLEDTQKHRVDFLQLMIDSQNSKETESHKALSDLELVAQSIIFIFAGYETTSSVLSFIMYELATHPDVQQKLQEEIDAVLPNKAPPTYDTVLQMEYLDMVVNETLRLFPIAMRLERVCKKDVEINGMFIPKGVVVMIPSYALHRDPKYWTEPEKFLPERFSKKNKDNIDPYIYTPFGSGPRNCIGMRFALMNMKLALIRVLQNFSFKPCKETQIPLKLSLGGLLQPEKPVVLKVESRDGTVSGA

[31] = AUC last in male Sprague-Dawley rat at 1 mg/kg, iv measured up to 24 hrs by LC-MS/MS analysis; format: ADME, organism-based; conditions: in vivo
[32] = Oral bioavailability in Cynomolgus monkey at 5 mg/kg measured up to 48 hrs by LC-MS/MS analysis; format: ADME, organism-based, Macaca fascicularis; conditions: in vivo
[33] = target: 5-HT1B receptor (Homo sapiens, UniProt P28222); assay: Inhibition of 5-HT1B (unknown origin) at 10 uM relative to control; format: toxicity
Chain of 5-HT1B receptor (P28222 whole entry): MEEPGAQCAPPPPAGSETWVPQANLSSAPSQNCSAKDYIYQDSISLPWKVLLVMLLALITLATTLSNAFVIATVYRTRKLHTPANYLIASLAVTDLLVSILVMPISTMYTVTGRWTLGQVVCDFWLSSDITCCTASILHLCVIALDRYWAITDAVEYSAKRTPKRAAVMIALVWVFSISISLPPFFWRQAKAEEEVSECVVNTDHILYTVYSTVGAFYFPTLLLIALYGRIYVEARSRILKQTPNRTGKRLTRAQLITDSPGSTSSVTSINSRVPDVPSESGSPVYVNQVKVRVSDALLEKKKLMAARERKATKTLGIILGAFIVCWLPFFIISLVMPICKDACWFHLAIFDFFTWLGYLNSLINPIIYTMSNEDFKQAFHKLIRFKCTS

SMILES: O=C(O)c1ccc2nc(Cc3ccc(-c4cccc(OCc5ccc(Cl)c6ccoc56)n4)cc3F)n(C[C@@H]3CCO3)c2c1
- IC50 [1]: > 30 µM
- inhibition at 30 µM [2]: < 50%

SMILES: O=C(O)c1ccc2nc(Cc3ccc(-c4cccc(OCc5ccc(Cl)c6cc(Cl)oc56)n4)cc3F)n(C[C@@H]3CCO3)c2c1
- IC50 [1]: > 30 µM
- inhibition at 30 µM [2]: < 50%
- half-life at 1 µM [3]: 1.93 h
- CLhep predicted at 1 µM [4]: 8.7 mL/min/kg
- CLint scaled at 1 µM [5]: 15 mL/min/kg

SMILES: O=C(O)c1ccc2nc(Cc3ccc(-c4ccc(F)c(OCc5ccc(Cl)c6ccoc56)n4)cc3F)n(C[C@@H]3CCO3)c2c1
- EC50 [7]: 0.012 nM
- inhibition at 10 µM [8]: 87.5%
- IC50 [9]: > 30 µM
- EC50 [10]: > 30 µM
- IC50 [11]: 28.3 µM
- EC50 [12]: > 30 µM
- bioavailability [13]: 20.1%
- IC50 [14]: > 30 µM
- IC50 [1]: > 30 µM
- AUC(0-t) at 24 h [15]: 2960 ng·h/mL
- IC50 [16]: > 30 µM
- inhibition at 10 µM [17]: 74.4%
- half-life [18]: 12.7 h
- Cmax [19]: 327 ng/mL
- Tmax [20]: 3.5 h
- EC50 [6]: 0.00132 µM
- half-life [21]: 10.4 h
- Tmax [22]: 2.5 h
- inhibition at 30 µM [2]: < 50%
- half-life at 1 µM [3]: 2.18 h
- CLhep predicted at 1 µM [4]: 8.09 mL/min/kg
- EC50 [23]: > 30 µM
- IC50 [24]: > 30 µM
- Cmax [25]: 347 ng/mL
- EC50 [26]: 0.029 nM
- EC50 [27]: 0.118 µM
- IC50 [28]: > 30 µM
- CLint scaled at 1 µM [5]: 13.3 mL/min/kg
- AUC(0-t) at 48 h [29]: 2440 ng·h/mL
- IC50 [30]: > 30 µM
- AUC(0-t) at 24 h [31]: 1480 ng·h/mL
- bioavailability [32]: 13.9%
- inhibition at 10 µM [33]: 62.4%

Second part, the molecule after the results:

- EC50 [6]: 0.00755 µM
SMILES: Cc1cc2c(Cl)ccc(COc3cccc(-c4ccc(Cc5nc6ccc(C(=O)O)cc6n5C[C@@H]5CCO5)c(F)c4)n3)c2o1

- EC50 [6]: 0.359 µM
SMILES: COCCn1c(Cc2ccc(-c3cccc(OCc4ccc(Cl)c5ccoc45)n3)cc2F)nc2ccc(C(=O)O)cc21
